Our source for the IC50 values is US20120207763A1, “PYRROLOPYRIMIDINE COMPOUNDS AND THEIR USES” (ASTEX THERAPEUTICS LIMITED, priority 2006, published 2012).

Common to all, as to type: biochemical
Test [1] concerns the target CDK2/Cyclin-A kinase complex (Homo sapiens, UniProt P24941). Kind of test: CDK2 IMAP fluorescence polarization assay. The method, boiled down: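 Fluorescence polarization (IMAP) using purified active CDK2/Cyclin-A complex with a TAMRA-tagged Histone H1-derived peptide substrate; phosphorylated peptide bound by a metal-containing reagent raises polarization. Inhibition read as reduced fluorescence polarization signal.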

Test [2] concerns the target CDK4 (Homo sapiens, UniProt P11802). In words: CDK4 HTRF assay. As to conditions: Table E; read-out: CDK4 HTRF/IC50 [umol l − 1].
For test [3], the target named is CDK4/Cyclin-D1 kinase complex (Homo sapiens, UniProt P11802). Kind of test: CDK4 ELISA based assay, Rb Ser780 phosphorylation. The source says:
The compounds that inhibit the CDK4 kinase activity would inhibit the signal output of the assay.

[4] abbreviates: Table E, read-out: CDK2cyA IMAP/IC50 [umol l − 1].
Setting [5] is: Table E, read-out: CDK4 ELISA assay IC50 [umol l−].

Like-named read-outs stand apart in the source and are kept apart here. A value given as a limit tells only on which side of the number the result lay.

CDK4, sequence (P11802 whole entry): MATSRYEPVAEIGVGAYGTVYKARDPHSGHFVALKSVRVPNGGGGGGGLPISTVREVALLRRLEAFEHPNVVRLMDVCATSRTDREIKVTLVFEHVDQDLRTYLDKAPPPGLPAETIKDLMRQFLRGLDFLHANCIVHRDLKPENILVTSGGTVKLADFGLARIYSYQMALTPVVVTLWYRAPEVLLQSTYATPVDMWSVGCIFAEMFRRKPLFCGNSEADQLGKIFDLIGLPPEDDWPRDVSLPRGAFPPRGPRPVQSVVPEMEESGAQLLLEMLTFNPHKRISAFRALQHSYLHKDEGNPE
CDK4, sequence (P24385 whole entry partner): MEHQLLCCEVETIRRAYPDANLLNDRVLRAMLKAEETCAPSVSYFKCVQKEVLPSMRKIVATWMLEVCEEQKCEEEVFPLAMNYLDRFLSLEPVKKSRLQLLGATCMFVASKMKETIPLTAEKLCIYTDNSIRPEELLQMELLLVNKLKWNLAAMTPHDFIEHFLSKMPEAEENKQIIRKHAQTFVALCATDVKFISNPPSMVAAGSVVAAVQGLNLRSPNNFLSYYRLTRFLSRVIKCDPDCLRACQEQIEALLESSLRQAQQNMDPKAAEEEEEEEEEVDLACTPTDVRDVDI
CDK4/Cyclin-D1 kinase complex, sequence (P11802 whole entry): as the sequence (P11802 whole entry) above
CDK4/Cyclin-D1 kinase complex, sequence (P24385 whole entry partner): as the sequence (P24385 whole entry partner) above

Turning to `CC(=O)c1c(C)c2cnc(Nc3ccc(N4CCNCC4)cn3)nc2n1C1CCCC1` [Example 387], the IC50 in test [1] (setting [4]) is 10 µM; in test [2], less than 1 µM; in test [3] (setting [5]), less than 1 µM.

For the compound `CCC(CC)n1c(C=NOC)cc2cnc(Nc3ccc(N4CCN(C(C)=O)CC4)cc3)nc21` [Example 364], the IC50 in test [1] (setting [4]) is less than 10 µM; in test [2], less than 1 µM; in test [3] (setting [5]) it was greater than 10 µM.

On to `CCC(CC)n1c(C(=O)O)cc2cnc(Nc3ccc(N4CCNCC4)cc3)nc21` [Example 375, 7-(1-Ethyl-propyl)-2-(4-piperazin-1-yl-phenylamino)-7H-pyrrolo[2,3-d]pyrimidine-6-carboxylic acid], for which the IC50 in test [1] (setting [4]), in test [2] and in test [3] (setting [5]) was less than 1 µM throughout.

`CCC(CC)n1c(COC)cc2cnc(Nc3ccc(N4CCN(C(=O)OC(C)(C)C)CC4)cc3)nc21` [Example 381]: the IC50 in test [2] and in test [3] (setting [5]) was greater than 10 µM throughout.

On to `CCC(C(=O)O)n1ccc2cnc(Nc3ccc(N4CCN(C(C)=O)CC4)cc3)nc21` (stereo not shown) [Example 220], for which the IC50 in test [2] and in test [3] (setting [5]) was greater than 10 µM throughout.

In the case of `CCCC(C(=O)OCC)n1ccc2cnc(Nc3ccc(N4CCN(C(C)=O)CC4)cc3)nc21` (stereo not shown) [Example 224], the IC50 in test [2] and in test [3] (setting [5]) was greater than 10 µM in each case.

Turning to `Cc1cn(C2CCCCC2)c2nc(Nc3ccc4[nH]ncc4c3)ncc12` [Example 280], the IC50 is greater than 10 µM in test [1] (setting [4]), greater than 10 µM in test [2] and less than 10 µM in test [3] (setting [5]).

Consider `CC(=O)c1cn(C2CCCC2)c2nc(Nc3ccc(N4CCNCC4)cc3)ncc12` [Example 326, 1-[7-cyclopentyl-2-(4-piperazin-1-yl-phenylamino)-7H-pyrrolo[2,3-d]pyrimidin-5-yl]-ethanone], for which the IC50 was 10 µM in test [2] and greater than 10 µM in test [3] (setting [5]).

In the case of `CC(=O)N1CCN(c2ccc(Nc3ncc4c(C)cn(C5CC5)c4n3)cc2)CC1` [Example 275], the IC50 is greater than 10 µM in test [1] (setting [4]), greater than 10 µM in test [2] and 8 µM in test [3] (setting [5]).

With `CCC(CC)n1c(C(=O)O)cc2cnc(Nc3ccc(N4CCN(C(C)=O)CC4)cc3)nc21` [Example 374, 2-[4-(4-Acetyl-piperazin-1-yl)-phenylamino]-7-(1-ethyl-propyl)-7H-pyrrolo[2,3-d]pyrimidine-6-carboxylic acid], the IC50 in test [1] (setting [4]), in test [2] and in test [3] (setting [5]) was less than 1 µM throughout.

With `CC(=O)N1CCN(c2ccc(Nc3ncc4ccn(C5CCCCCC5)c4n3)cc2)CC1` [Example 225], the IC50 in test [1] (setting [4]) was less than 10 µM; in test [2] it was less than 1 µM; in test [3] (setting [5]), less than 1 µM.

With `CCC(CC)n1c(C=O)cc2cnc(Nc3ccc(N4CCN(C(C)=O)CC4)cc3)nc21` [Example 361, 2-[4-(4-Acetyl-piperazin-1-yl)-phenylamino]-7-(1-ethyl-propyl)-7H-pyrrolo[2,3-d]pyrimidine-6-carbaldehyde], the IC50 in test [1] (setting [4]), in test [2] and in test [3] (setting [5]) was less than 1 µM in each case.

Take `CCC(CC)n1c(COC)cc2cnc(Nc3ccc(N4CCNCC4)cc3)nc21` [Example 382]: the IC50 in test [1] (setting [4]) is less than 10 µM; in test [2], less than 1 µM; in test [3] (setting [5]), greater than 10 µM.

Regarding `CC(=O)c1c(C)n(C2CCCC2)c2nc(Nc3ccc(N4CCNCC4)cc3)ncc12` [Example 333, 1-[7-Cyclopentyl-6-methyl-2-(4-piperazin-1-yl-phenylamino)-7H-pyrrolo[2,3-d]pyrimidin-5-yl]-ethanone], the figures for the IC50 in test [1] (setting [4]), in test [2] and in test [3] (setting [5]) were 10 µM, 10 µM and less than 10 µM, respectively.

Take `CCC(CC)n1c(CO)cc2cnc(Nc3ccc(N4CCN(C(C)=O)CC4)cc3)nc21` [Example 362, 1-(4-{4-[7-(1-Ethyl-propyl)-6-hydroxymethyl-7H-pyrrolo[2,3-d]pyrimidin-2-ylamino]-phenyl}-piperazin-1-yl)-ethanone]: the results for the IC50 in test [1] (setting [4]) and in test [3] (setting [5]) were less than 1 µM and greater than 10 µM, respectively.

As for `CN1CCN(c2ccc(Nc3ncc4ccn(C5CCCC5)c4n3)nc2)CC1` [Example 255], the IC50 in test [1] (setting [4]) and in test [3] (setting [5]) was greater than 10 µM throughout.

Turning to `Cc1cc2cnc(Nc3ccc(N4CCNCC4)cc3)nc2n1C1CCCC1` [Example 430], the IC50 in test [1] (setting [4]), in test [2] and in test [3] (setting [5]) was less than 1 µM throughout.

Take `CCC(CC)n1ccc2cnc(Nc3ccc(N4CCN(C)CC4)c(F)c3)nc21` [Example 208]: the IC50 in test [1] (setting [4]) and in test [3] (setting [5]) was less than 10 µM each time.

With `CC(C)(C)OC(=O)N1CCN(c2ccc(Nc3ncc4ccn(C5CCCC5)c4n3)cc2)CC1` [Example 427], the IC50 in test [2] and in test [3] (setting [5]) was greater than 10 µM each time.

For `CCC(CC)N1C(=O)C(C)(C)c2cnc(Nc3ccc(N4CCNCC4)cn3)nc21`, the IC50 in test [1] (Table C, read-out: CDK2 IC50) was greater than 10 µM; in test [3] (Table C, read-out: CDK4 IC50), less than 10 µM.

Consider `CC(=O)c1c(C)c2cnc(Nc3ccc(N4CCNCC4)cc3)nc2n1C1CCCC1` [Example 383], for which the IC50 in test [1] (setting [4]), in test [2] and in test [3] (setting [5]) was less than 1 µM in each case.

Take `CCC(CC)N1C(=O)C(C)(C)c2cnc(Nc3ccc(N4CCN(C)CC4)cc3)nc21` [drawing 155]: the IC50 in test [1] (Table C, read-out: CDK2 IC50) is less than 10 µM; in test [3] (Table C, read-out: CDK4 IC50), less than 10 µM.

Turning to `CCC(CC)n1ccc2cnc(Nc3ccc(C4CCCN(C(C)=O)C4)cc3)nc21` (stereo not shown) [Example 216], the IC50 in test [1] (setting [4]) and in test [3] (setting [5]) was less than 10 µM in each case.
